Reference: paper PMC6838151 (Scientific Reports, 2019)
In brackets after ≈: the same amount, converted by molar mass.

test system: S. cerevisiae erg6Δ; test: MIC50 growth inhibition, S. cerevisiae erg6Δ deletion mutant, 48 h; type: cell-based, Saccharomyces cerevisiae; details: S. cerevisiae erg6Δ, YPD, 30 °C
Text: For the preliminary studies of the biological activity of the studied compound we chose S. cerevisiae, which is generally considered a non-pathogenic organism, but currently recognized as a potentially important agent causing opportunistic infections against immunocompromised patients. In order to assess whether all the Ke derivatives share the mechanism of action with the parent compound, or if they might present different or additional modes of action, the inhibitory concentration MIC50 (Table 2) was determined on the basis of the dose-response curves (Fig. S11 in ESI) in a 48 h assay against S. cerevisiae wt strain BY4741 and the deletion mutant erg6Δ, which lacks the gene coding for the S-adenosylmethionine: 24-methyltransferase[52], accumulating cholesta-5,7,24-trienol and zymosterol instead of ergosterol. There are several studies reporting that the ERG6 gene deletion may increase the resistance of S. cerevisiae cells to azole compounds[54]–[56]. […] The value determined for the wt strain is in very good agreement with previous studies carried out under similar condition (48 h, 30 °C) (e.g.[57]).
(§1) The following strains of S. cerevisiae were used in this study: BY4741 (wild type towards erg6Δ, ACC Y00000; MATa; his3Δ1; leu2Δ0; met15Δ0; ura3Δ0), erg6Δ (ACC Y00568; BY4741 isogenic with YML008c::kanMX4), W303 (wild type towards AD1-8; MATα; leu2-3,112 trp1-1 can1-100 ura3-1 ade2-1 his3-11,15 AD1-8 (W303 isogenic with pdr1-3, ura3, his1, yor1∆::hisG, snq2∆::hisG, pdr5∆::hisG, pdr10∆::hisG, pdr11∆:: hisG, ycf1∆::hisG, pdr3∆::hisG, pdr15∆::hisG). BY4741 and erg6Δ were acquired from EUROSCARF, Frankfurt, Germany; W303 and AD1-8 were kind gifts from Prof. A. Goffeau, Chaire Internationale Blaise Pascal, Lab. Genet. Mol., École Normale Supérieure, Paris, and Prof. M. Ghislain, Université Catholique de Louvain, Faculté des sciences Agronomiques, Louvain-la-Neuve, Belgium. Visible turbid overnight cultures of S. cerevisiae strains were prepared and diluted to A600 ≈ 0.1 in fresh Yeast Extract – Peptone - Dextrose (YPD) medium. The cultures were transferred to 96 microtiter well plates containing aliquots of serially diluted antifungal drugs (Ke and its derivatives: KeP, KeOP, KeSP, KeSeP), prepared from DMS stock solutions and drug-free controls. The yeast cultures were statically incubated at 30 °C for 48 hours with compounds[88]. The dose-response curves were analysed with GraphPad Prism 5 software (San Diego, USA) or a microplate reader ASYS UVM (Biogenet). All values presented are the mean of at least three independent experiments.

SMILES | MIC50
CC(=O)N1CCN(c2ccc(OCC3COC(Cn4ccnc4)(c4ccc(Cl)cc4Cl)O3)cc2)CC1 (stereo not shown) [Ke, ketoconazole, reference compound] | no activity
S=P(CN1CCN(c2ccc(OC[C@H]3CO[C@](Cn4ccnc4)(c4ccc(Cl)cc4Cl)O3)cc2)CC1)(c1ccccc1)c1ccccc1 [KeSP, Ph2P(S)CH2-Ke] | inactive

same assay, conditions: Saccharomyces cerevisiae

SMILES | MIC50 [µM]
CC(=O)N1CCN(c2ccc(OCC3COC(Cn4ccnc4)(c4ccc(Cl)cc4Cl)O3)cc2)CC1 (stereo not shown) [Ke, ketoconazole, reference compound] | > 200
S=P(CN1CCN(c2ccc(OC[C@H]3CO[C@](Cn4ccnc4)(c4ccc(Cl)cc4Cl)O3)cc2)CC1)(c1ccccc1)c1ccccc1 [KeSP, Ph2P(S)CH2-Ke] | > 200

test system: S. cerevisiae WT (W303); test: MIC50 growth inhibition, S. cerevisiae wt W303, 48 h; type: cell-based; details: Saccharomyces cerevisiae
Text: as §1, with “The cultures were transferred to 96 microtiter well plates containing aliquots of serially diluted antifungal drugs (Ke and its derivatives: KeP, KeOP, KeSP, KeSeP), prepared from DMS stock solutions and drug-free controls.” left out

SMILES | MIC50 [µM]
S=P(CN1CCN(c2ccc(OC[C@H]3CO[C@](Cn4ccnc4)(c4ccc(Cl)cc4Cl)O3)cc2)CC1)(c1ccccc1)c1ccccc1 [KeSP, Ph2P(S)CH2-Ke] | > 200

same assay, conditions: Saccharomyces cerevisiae, S. cerevisiae WT (W303), YPD, 30 °C, read-out: MIC50

SMILES | MIC50 [µM]
CC(=O)N1CCN(c2ccc(OCC3COC(Cn4ccnc4)(c4ccc(Cl)cc4Cl)O3)cc2)CC1 (stereo not shown) [Ke, ketoconazole, reference compound] | 6.25 (≈ 3.32 µg/mL)

test system: C. albicans B4; test: microbe, parasite or virus in culture; type: cell-based, Candida albicans; details: B4 vs B3
Text: (§2) The C. albicans CAF2-1 (Genotype/Description: ura3Δ::imm434/URA3[89]) and DSY1050 (Genotype/Description: cdr1Δ::hisG/cdr1Δ::hisG/cdr2Δ::hisG/cdr2Δ::hisG/mdr1Δ::hisG-URA3-hisG/mdr1Δ::hisG[90]) strains used in this study were generous gift from D. Sanglard (Lausanne, Switzerland)[91],[92] whereas C. albicans B3 and Gu4 (Genotype/Description: clinical isolates fluconazole sensitive)[93]), B4 (Genotype/Description: Clinical isolate fluconazole resistant due to the overexpression of MDR1[93]) and Gu5 (Genotype/Description: Clinical isolate fluconazole resistant due to the overexpression of CDR1 and CDR2[93]) were a generous gift from prof. S. Milewski (Gdańsk, Poland)[94] and prof. J. Morschhäuser (Wurzburg, Germany)[93]. All strains were grown at 37 °C on Sabouraud medium (Biomerieux).
(§3) The antifungal activity was determined on the 96-well polystyrene microtiter plates (Sarstedt) according to Clinical and Laboratory Standards Institute M27-A3[95]. […] The compounds were dissolved in DMSO (10 mM) and then serially diluted in RPMI-1640 (ThermoFisher) medium to obtain the final concentration range. Inocula of all strains were prepared as suspensions with turbidity of 0.5 McFarland standard in sterile 0.85% saline and diluted in RPMI-1640. After inoculation, each well contained appr. 5 × 10^2 CFU/mL. The plates were cultivated for 48 h at 37 °C. Optical density was measured at A490nm using a microplate reader ASYS UVM 340 (Biogenet).

SMILES | times higher resistance of B4 than B3
S=P(CN1CCN(c2ccc(OC[C@H]3CO[C@](Cn4ccnc4)(c4ccc(Cl)cc4Cl)O3)cc2)CC1)(c1ccccc1)c1ccccc1 [KeSP, Ph2P(S)CH2-Ke] | two

same assay, conditions: Candida albicans, B4, 48 h

SMILES | MIC50 [µM]
CC(=O)N1CCN(c2ccc(OCC3COC(Cn4ccnc4)(c4ccc(Cl)cc4Cl)O3)cc2)CC1 (stereo not shown) [Ke, ketoconazole, reference compound] | 0.39 (≈ 0.207 µg/mL)
S=P(CN1CCN(c2ccc(OC[C@H]3CO[C@](Cn4ccnc4)(c4ccc(Cl)cc4Cl)O3)cc2)CC1)(c1ccccc1)c1ccccc1 [KeSP, Ph2P(S)CH2-Ke] | 3.13 (≈ 2.25 µg/mL)

test system: C. albicans CAF2-1; test: microbe, parasite or virus in culture; type: cell-based, Candida albicans; details: C. albicans CAF2-1, MIC50 ratio
Text: as §2, §3

SMILES | times more active than Flc
S=P(CN1CCN(c2ccc(OC[C@H]3CO[C@](Cn4ccnc4)(c4ccc(Cl)cc4Cl)O3)cc2)CC1)(c1ccccc1)c1ccccc1 [KeSP, Ph2P(S)CH2-Ke] | two

same assay, conditions: Candida albicans, CAF21, 48 h

SMILES | MIC50 [µM]
CC(=O)N1CCN(c2ccc(OCC3COC(Cn4ccnc4)(c4ccc(Cl)cc4Cl)O3)cc2)CC1 (stereo not shown) [Ke, ketoconazole, reference compound] | 0.05 (≈ 0.0266 µg/mL)
S=P(CN1CCN(c2ccc(OC[C@H]3CO[C@](Cn4ccnc4)(c4ccc(Cl)cc4Cl)O3)cc2)CC1)(c1ccccc1)c1ccccc1 [KeSP, Ph2P(S)CH2-Ke] | 3.13 (≈ 2.25 µg/mL)

test system: C. albicans DSY1050; test: microbe, parasite or virus in culture; type: cell-based, Candida albicans; details: Candida albicans, DSY1050, 48 h
Text: as §2, §3

SMILES | MIC50 [µM]
CC(=O)N1CCN(c2ccc(OCC3COC(Cn4ccnc4)(c4ccc(Cl)cc4Cl)O3)cc2)CC1 (stereo not shown) [Ke, ketoconazole, reference compound] | 0.02 (≈ 0.0106 µg/mL)
S=P(CN1CCN(c2ccc(OC[C@H]3CO[C@](Cn4ccnc4)(c4ccc(Cl)cc4Cl)O3)cc2)CC1)(c1ccccc1)c1ccccc1 [KeSP, Ph2P(S)CH2-Ke] | 0.39 (≈ 0.281 µg/mL)

same assay, conditions: DSY1050 vs CAF2-1

SMILES | times more susceptible than parental strain (CAF2-1)
S=P(CN1CCN(c2ccc(OC[C@H]3CO[C@](Cn4ccnc4)(c4ccc(Cl)cc4Cl)O3)cc2)CC1)(c1ccccc1)c1ccccc1 [KeSP, Ph2P(S)CH2-Ke] | eight

test system: C. albicans Gu5; test: microbe, parasite or virus in culture; type: cell-based, Candida albicans; details: C. albicans Gu5, RPMI-1640, 37 °C, 48 h
Text: as §2, §3

SMILES | MIC50
S=P(CN1CCN(c2ccc(OC[C@H]3CO[C@](Cn4ccnc4)(c4ccc(Cl)cc4Cl)O3)cc2)CC1)(c1ccccc1)c1ccccc1 [KeSP, Ph2P(S)CH2-Ke] | no inhibitory effect

same assay, conditions: Candida albicans, GU5, 48 h

SMILES | MIC50 [µM]
CC(=O)N1CCN(c2ccc(OCC3COC(Cn4ccnc4)(c4ccc(Cl)cc4Cl)O3)cc2)CC1 (stereo not shown) [Ke, ketoconazole, reference compound] | 50 (≈ 26.6 µg/mL)
S=P(CN1CCN(c2ccc(OC[C@H]3CO[C@](Cn4ccnc4)(c4ccc(Cl)cc4Cl)O3)cc2)CC1)(c1ccccc1)c1ccccc1 [KeSP, Ph2P(S)CH2-Ke] | > 200

test system: C. albicans B3; test: microbe, parasite or virus in culture; type: cell-based; details: Candida albicans, B3, 48 h
Text: as §2, §3

SMILES | MIC50 [µM]
CC(=O)N1CCN(c2ccc(OCC3COC(Cn4ccnc4)(c4ccc(Cl)cc4Cl)O3)cc2)CC1 (stereo not shown) [Ke, ketoconazole, reference compound] | 0.05 (≈ 0.0266 µg/mL)

same assay, conditions: Candida albicans; C. albicans B3, RPMI-1640, 37 °C, 48 h; read-out: MIC50

SMILES | MIC50 [µM]
S=P(CN1CCN(c2ccc(OC[C@H]3CO[C@](Cn4ccnc4)(c4ccc(Cl)cc4Cl)O3)cc2)CC1)(c1ccccc1)c1ccccc1 [KeSP, Ph2P(S)CH2-Ke] | 1.56 (≈ 1.12 µg/mL)

test system: C. albicans Gu4; test: microbe, parasite or virus in culture; type: cell-based; details: Candida albicans, GU4, 48 h
Text: as §2, §3

SMILES | MIC50 [µM]
CC(=O)N1CCN(c2ccc(OCC3COC(Cn4ccnc4)(c4ccc(Cl)cc4Cl)O3)cc2)CC1 (stereo not shown) [Ke, ketoconazole, reference compound] | 25 (≈ 13.3 µg/mL)
S=P(CN1CCN(c2ccc(OC[C@H]3CO[C@](Cn4ccnc4)(c4ccc(Cl)cc4Cl)O3)cc2)CC1)(c1ccccc1)c1ccccc1 [KeSP, Ph2P(S)CH2-Ke] | 50 (≈ 36 µg/mL)
